# Laboratory results as given in patent US11958868B2, “Methods of using metal complexes to promote wound healing” (University of Macau, priority 2022, dated 2024).
# Target: VHL (Homo sapiens, UniProt P40337)
# Experiment: Binding affinity to VHL compared with VH298
# Conditions: VH298 vs complex 1a
# Chain of VHL (P40337 whole entry): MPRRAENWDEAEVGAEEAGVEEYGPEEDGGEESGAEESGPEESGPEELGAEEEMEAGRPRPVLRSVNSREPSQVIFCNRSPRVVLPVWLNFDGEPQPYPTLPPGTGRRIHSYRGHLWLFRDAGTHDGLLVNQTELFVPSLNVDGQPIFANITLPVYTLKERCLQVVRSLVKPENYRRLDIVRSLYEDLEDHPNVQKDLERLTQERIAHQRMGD
# Chain of VHL (Q15370 whole entry partner): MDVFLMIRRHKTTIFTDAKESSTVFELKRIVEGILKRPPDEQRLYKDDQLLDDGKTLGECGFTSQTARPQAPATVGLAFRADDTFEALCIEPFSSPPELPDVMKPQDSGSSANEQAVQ
# Chain of VHL (Q15369 whole entry partner): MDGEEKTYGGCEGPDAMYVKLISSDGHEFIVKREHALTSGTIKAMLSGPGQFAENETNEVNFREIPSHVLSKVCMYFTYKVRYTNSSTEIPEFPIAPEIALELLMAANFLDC
row,SMILES,"Binding affinity to VHL, stronger than complex 1a"
1,"Cc1ncsc1-c1ccc(CNC(=O)[C@@H]2C[C@@H](O)CN2C(=O)[C@@H](NC(=O)C2(C#N)CC2)C(C)(C)C)cc1 [VH298, reference compound]",ca. 100 fold

# Tested on: HIF-1α levels in A498 (VHL-null) cells
# Experiment: HIF-1α accumulation in VHL-null A498 cells
# Assay type: cell-based
# Conditions: 1a 3 μM, VH298 100 μM, 2 h
# Method: FIG. 3 depicts the effect of complex 1a on HIF-1α target gene products in cellulo. (A) Effect of complex 1a on specific proteins (GLUT1, VEGF, and EPO) mediated by HIF-1α in HEK293 cells. HEK293 cells were treated with 1a for 2 h. Cell lysis were collected and analyzed by the Western blotting. (B) Complex 1a has no effect on HIF-1α accumulation in a VHL null cancer cell line. A498 (VHL-null), or HEK293 cells were treated with 1% DMSO, 1a (3 μM), VH298 (100 μM), and FG-4592 (100 μM) for 2 h before lysis. (C) Effect of complex 1a on EPO, GLUT1, and VEGF levels in HEK293 cells with or without HIF-1α knockdown. Left: The expression levels of EPO, GLUT1, and VEGF in HEK293 cells with or without knockdown HIF-1α in the presence or absence of 1a. Right: Densitometry analysis of EPO, GLUT1, and VEGF levels on the Western blot. HIF-1α siRNA [sense, 5′-[…]-3′ (SEQ ID NO:1), antisense, 5′-[…]-3′ (SEQ ID NO:2)]. Negative control (NC) siRNA [sense, 5′-[…]-3′ (SEQ ID NO:3), antisense, 5′-[…]-3′ (SEQ ID NO:4)]. Data are expressed as means±SD (n=3 independent experiments), P values were calculated using a two-sided t-test. #P<0.05, P<0.01 HIF-1α siRNA vs. NC siRNA, *P<0.05, **P<0.01 1a vs. vehicle/DMSO group, respectively. […]
row,SMILES,HIF-1α levels in A498 cells
1,"Cc1ncsc1-c1ccc(CNC(=O)[C@@H]2C[C@@H](O)CN2C(=O)[C@@H](NC(=O)C2(C#N)CC2)C(C)(C)C)cc1 [VH298, reference compound]",no increase in HIF-1α levels

# Target: T1, human recombinant VHL:ElonginB:ElonginC (VBC) complex (Homo sapiens, UniProt P40337)
# T1 construct: made in house
# Experiment: Fluorescence-based protein thermal shift assay (FTS) of VBC
# Assay type: binding
# Conditions: 100 μM
# Method: HEK293 cells were treated with vehicle DMSO (1% for 2 h), 1a (0.3, 1, 3, 6 and 9 μM for 2 h), VH298 (100 μM for 2 h), MG132 (20 μM for 3 h), or FG-4592 (100 μM for 2 h) before lysis. Cell lysates were collected and incubated with VHL antibody overnight at 4° C. The proteins were immunoprecipitated using agarose beads. The levels of hydroxy-HIF-1α co-precipitated with VHL were detected using a hydroxy-HIF-1α antibody, and then visualized using ECL Western Blotting Detection Reagent (GE Healthcare). (B) Cellular thermal shift assays to monitor cellular target engagement of VHL and HIF-1α. HEK293 cell lysates were treated with 1a (3 μM) at room temperature for 30 min and then heated at different temperature ranging from 48° C. to 68° C. for 5 min. The protein samples were collected and detected by Western blotting using either VHL or PHD2 antibodies. (C) Fluorescence-based protein thermal shift assay of VBC in the presence or absence of VH298 (100 μM) and complex 1a (100 μM). […] Data are expressed as means±SD (n=3 independent experiments for figures a and b, samples for figures c and e), P values were calculated using a two-sided t-test. *P<0.05, **P<0.01 vs. DMSO group.
# After incubating HEK293 cell lysates with complex 1a followed by heating to set temperatures, VHL and PHD2 levels in the soluble fraction were quantitated by Western blotting.
# T1 sequence (P40337 whole entry): as the sequence (P40337 whole entry) above
# T1 sequence (Q15370 whole entry partner): as the sequence (Q15370 whole entry partner) above
# T1 sequence (Q15369 whole entry partner): as the sequence (Q15369 whole entry partner) above
row,SMILES,Shift of the melting curve of purified VBC (FTS)
1,"Cc1ncsc1-c1ccc(CNC(=O)[C@@H]2C[C@@H](O)CN2C(=O)[C@@H](NC(=O)C2(C#N)CC2)C(C)(C)C)cc1 [VH298, reference compound]",ca. 5.0 °C

# Tested on: HIF-1α activation of the HRE-driven reporter
# Experiment: Dual luciferase reporter assay (HRE-driven luciferase activity)
# Assay type: cell-based, Human
# Conditions: HEK293 cells
# Method: A library of cyclometalated Ir(III)/Rh(III) metal complexes 1-14 (as racemates) with diverse structures were selected for initial screening, in order to identify favorable substructures for the design of the next round of complexes (FIG. 1a). In cells, HIF-1α moves into the nucleus and binds to the hypoxia-response element (HRE) in the promoters of transactivated genes. In this study, the dual luciferase reporter assay (DLR) was performed to monitor the variations of HRE-driven luciferase activity induced by the complexes (FIG. 1f). Human embryonic kidney HEK293 cells were treated with complexes (10 μM) for 8 h, and the HRE-driven luciferase activity of the cell lysates was determined. Complexes that inhibit the interaction between VHL and HIF-1α would be expected to increase the level of HRE-driven luciferase activity in the cell lysates.
# HEK293 cells were seeded in six well plates 24 h before transfection. HRE-luciferase plasmid (4 μg) and pRL-TK plasmid (4 μg) and TurboFect reagent (6 μL) were mixed together in serum-free DMEM medium and the resulting solution was incubated for 20 min at room temperature. The mixture was the added dropwise to the HEK293 cells in the wells. The cells were incubated for 32 h at 37° C. in a CO2 incubator before use.
# The inhibition of HIF-1α activity was assayed by a reporter assay using a dual luciferase reporter assay system (Promega, Madison, WI, USA). Transiently transfected cells were treated with complexes or P1 for 8 h before measurement. Luciferase activity was integrated over a 10 second period and measured using a spectrophotometer (Spectra-max M5, Molecular Devices, USA). The results were standardization with the activity of Renilla luciferase. All data are expressed as means±SD.
row,SMILES,Effect of isolated ligands on HRE-driven luciferase activity
1,"COc1ccnc2c1ccc1c(OC)ccnc12 [dmeophen, 4,7-dimethoxy-1,10-phenanthroline]",neither brpy nor dmeophen had any significant effect
2,"Brc1ccc(-c2ccccn2)cc1 [brpy, 2-(4-bromophenyl)pyridine]",neither brpy nor dmeophen had any significant effect

# Same assay, conditions: HEK293 cells, 8 h
row,SMILES,HRE-driven luciferase activity compared to positive control P1 (and parent complex 1)
1,COc1cc[n+]2c3c1ccc1c(OC)cc[n+](c13)[Rh-3]213([c]2cc(Br)ccc2-c2cccc[n+]21)[c]1cc(Br)ccc1-c1cccc[n+]13.F[P-](F)(F)(F)(F)F [compound 1],"slightly higher activity compared to the positive control compound, P1"

# Same assay, conditions: HEK293 cells, 8 h; complexes 1a-1n; ranking and comparison in words
row,SMILES,"HRE-driven luciferase activity, second round of screening"
1,COc1cc[n+]2c3c1ccc1c(OC)cc[n+](c13)[Ir-3]213([c]2ccccc2-c2c(C)ccc[n+]21)[c]1ccccc1-c1c(C)ccc[n+]13.F[P-](F)(F)(F)(F)F [1e],substantially weakens the activity of the complex
2,COc1cc[n+]2c(c1)-c1cc(OC)cc[n+]1[Ir-3]213([c]2cc(Br)ccc2-c2cccc[n+]21)[c]1cc(Br)ccc1-c1cccc[n+]13.F[P-](F)(F)(F)(F)F [1h],led to a decrease in activity
3,Brc1ccc2[c](c1)[Rh-3]13([c]4cc(Br)ccc4-c4cccc[n+]41)([n+]1ccccc1-2)[n+]1ccc(Br)c2ccc4c(Br)cc[n+]3c4c21.F[P-](F)(F)(F)(F)F [1k],drastically reduced activity
4,COc1cc[n+]2c3c1ccc1c(OC)cc[n+](c13)[Rh-3]213([c]2ccccc2-c2cccc[n+]21)[c]1ccccc1-c1cccc[n+]13.F[P-](F)(F)(F)(F)F [1b],substantially more active than the Rh(III) congener 1b
5,COc1cc[n+]2c3c1ccc1c(OC)cc[n+](c13)[Ir-3]213([c]2cc(Br)ccc2-c2cccc[n+]21)[c]1cc(Br)ccc1-c1cccc[n+]13.F[P-](F)(F)(F)(F)F [1c],drastically reduced activity
6,Brc1ccc2[c](c1)[Ir-3]13([c]4cc(Br)ccc4-c4cccc[n+]41)([n+]1ccccc1-2)[n+]1ccc(-c2ccccc2)c2ccc4c(-c5ccccc5)cc[n+]3c4c21.F[P-](F)(F)(F)(F)F [1n],drastically reduced activity
7,Brc1ccc2[c](c1)[Ir-3]13([c]4cc(Br)ccc4-c4cccc[n+]41)([n+]1ccccc1-2)[n+]1ccc(Br)c2ccc4c(Br)cc[n+]3c4c21.F[P-](F)(F)(F)(F)F [1l],drastically reduced activity
8,Brc1ccc2[c](c1)[Rh-3]13([c]4cc(Br)ccc4-c4cccc[n+]41)([n+]1ccccc1-2)[n+]1ccc(-c2ccccc2)c2ccc4c(-c5ccccc5)cc[n+]3c4c21.F[P-](F)(F)(F)(F)F [1m],drastically reduced activity
9,Brc1ccc2[c](c1)[Rh-3]13([c]4cc(Br)ccc4-c4cccc[n+]41)([n+]1ccccc1-2)[n+]1cccc2ccc4ccc[n+]3c4c21.F[P-](F)(F)(F)(F)F [1i],drastically reduced activity
10,COc1cc[n+]2c3c1ccc1c(OC)cc[n+](c13)[Ir-3]213([c]2cc(C)ccc2-c2cccc[n+]21)[c]1cc(C)ccc1-c1cccc[n+]13.F[P-](F)(F)(F)(F)F [1g],second-most potent compound
11,Brc1ccc2[c](c1)[Ir-3]13([c]4cc(Br)ccc4-c4cccc[n+]41)([n+]1ccccc1-2)[n+]1cccc2ccc4ccc[n+]3c4c21.F[P-](F)(F)(F)(F)F [1j],drastically reduced activity

# Same assay, conditions: HEK293 cells, complexes 10 μM, 8 h; complexes 1-14; ranking in words
row,SMILES,"HRE-driven luciferase activity (HIF-1α transcriptional activity), first round of screening"
1,COC(=O)c1cc[n+]2c(c1)-c1cc(C(=O)OC)cc[n+]1[Rh-3]213([c]2ccccc2-c2ccc4ccccc4[n+]21)[c]1ccccc1-c1ccc2ccccc2[n+]13.F[P-](F)(F)(F)(F)F [compound 7],low activity
2,CCc1ccc2[c](c1)[Rh-3]13([c]4cc(CC)ccc4-c4cccc[n+]41)([n+]1ccccc1-2)[n+]1ccc(-c2ccccc2)c2ccc4c(-c5ccccc5)cc[n+]3c4c21.F[P-](F)(F)(F)(F)F [compound 5],next most potent candidate
3,COc1cc[n+]2c3c1ccc1c(OC)cc[n+](c13)[Rh-3]213([c]2cc(Br)ccc2-c2cccc[n+]21)[c]1cc(Br)ccc1-c1cccc[n+]13.F[P-](F)(F)(F)(F)F [compound 1],highest activation of HIF-1α transcriptional activity
4,F[P-](F)(F)(F)(F)F.O=[N+]([O-])c1cc2ccc[n+]3c2c2c1ccc[n+]2[Ir-3]312([c]3cc(F)cc(F)c3-c3cccc[n+]31)[c]1cc(F)cc(F)c1-c1cccc[n+]12 [compound 9],low activity
5,CCc1ccc2[c](c1)[Rh-3]13([c]4cc(CC)ccc4-c4ccc5ccccc5[n+]41)([n+]1ccc(OC)cc1-c1cc(OC)cc[n+]13)[n+]1c-2ccc2ccccc21.F[P-](F)(F)(F)(F)F [compound 6],low activity
